Source: US10968212B2 (ACCUTAR BIOTECHNOLOGY INC., priority 2016, dated 2021)

Columns and labels:
[1] = tested on: MCF-7 tumors; test: Tumor growth inhibition in MCF-7 breast cancer-derived mouse xenograft model; assay type: in vivo; settings: 10 mg/day, i.p., 3 weeks, BALB/c nude mice with MCF-7 tumors; FIG. 14A
Procedure: For the tumor growth inhibition study, female BALB/c nude mice (with supplemental 17-β estradiol) bearing MCF-7 tumors (mean tumor volume 211 mm^3) were i.p. treated with Accutar-153 (10 mg/day) in vehicle or by vehicle only for 3 weeks. Body weight and tumor volume (tumor volume=[length×width^2]/2) were monitored twice weekly. At the end of study, plasma, tumor tissues and organs (brain, liver, kidney) for each animal were collected for further analysis.
Female BALB/c nude mice (supplemented with 17-β estradiol) bearing MCF-7 tumors (mean tumor volume was 211 mm^3) were treated with the compound:
[drawing 197] (10 mg/day, i.p.) in vehicle, or by vehicle only, for 3 weeks. Body weight and tumor volume (tumor volume=[length×width^2]/2) were monitored twice weekly. At the end of study, plasma, tumor tissues and organs (brain, liver, kidney) for each animal were collected for further analysis. The tumor growth inhibition studies were performed twice.

[2] = biological target: T1, Estrogen Receptor alpha (Homo sapiens, UniProt P03372); test: Estrogen Receptor alpha degradation in MCF-7 cells (immunoblot, 20 hours); assay type: cell-based; settings: concentrations from 1 nM to 1 μM, FIGS. 3A and 3B
T1 construct: endogenous in cells; host or cells: MCF7 or LTED cells
T1 sequence (P03372 1-595): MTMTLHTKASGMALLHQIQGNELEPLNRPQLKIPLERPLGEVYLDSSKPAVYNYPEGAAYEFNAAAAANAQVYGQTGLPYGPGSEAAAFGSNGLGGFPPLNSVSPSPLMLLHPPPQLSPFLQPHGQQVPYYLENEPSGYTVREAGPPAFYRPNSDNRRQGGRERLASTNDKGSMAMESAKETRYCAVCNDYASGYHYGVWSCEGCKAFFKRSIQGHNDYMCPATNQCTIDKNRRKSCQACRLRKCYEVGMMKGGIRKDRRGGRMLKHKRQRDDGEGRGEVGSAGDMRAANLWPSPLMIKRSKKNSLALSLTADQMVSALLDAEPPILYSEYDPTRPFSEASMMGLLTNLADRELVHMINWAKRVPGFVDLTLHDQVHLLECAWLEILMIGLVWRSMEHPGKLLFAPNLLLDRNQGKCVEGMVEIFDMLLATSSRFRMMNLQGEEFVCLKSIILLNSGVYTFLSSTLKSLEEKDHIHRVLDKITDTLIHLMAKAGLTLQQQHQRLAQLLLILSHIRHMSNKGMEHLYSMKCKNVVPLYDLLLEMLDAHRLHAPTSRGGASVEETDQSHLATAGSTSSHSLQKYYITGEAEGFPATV
Procedure: MCF-7 cells were maintained in high glucose DMEM (Corning cellgro, 15-013-CM), supplemented with 10% FBS, 1× L-Glutamine (29.2 mg/mL) and 1× Penicillin Streptomycin (10,000 I.U./mL Penicillin; 10,000 μg/mL Streptomycin; Corning, 30-009-CI). The resulting MCF-7 cells were plated into a 24-well plate at 1×10^5 cells/well, and the following day, compound was added to the cell medium at various concentrations. After treating the cell medium with compound, the cell plates were incubated for 20 hours at 37° C. Upon cooling, cells were lysed by addition of SDS loading buffer. The resulting cell lysates were subjected to immunoblotting by standard protocol. with primary antibodies of mouse anti-human ERα monoclonal antibody (Santa Cruz Biotechnology Inc., #SC-8002) and 1:1000 goat anti-human actin polyclonal antibody (Santa Cruz Biotechnology Inc. #SC-1616). Western blot results visualized using picoLUCENT™ PLUS-HRP ECL (G Biosciences, 786-165) and LI-CORC digit imaging system.

SMILES | tumor weight, treatment group versus control group [1] | degradation of Estrogen Receptor alpha compared with the control [2]
CC/C(=C(\c1ccc(O)cc1)c1ccc(OCCNC(=O)CCCCCCC(=O)N[C@H](C(=O)N2C[C@H](O)C[C@H]2C(=O)NCc2ccc(-c3scnc3C)cc2)C(C)(C)C)cc1)c1ccccc1 | significant decrease in tumor weight | –
CC/C(=C(\c1ccccc1)c1ccc(OCCN(C)CCCCCCC(=O)N[C@H](C(=O)N2C[C@H](O)C[C@H]2C(=O)NCc2ccc(-c3scnc3C)cc2)C(C)(C)C)cc1)c1ccccc1 [Compound 4] | – | resulted in degradation of Estrogen Receptor alpha when compared with the control
